The source of these data is ChEMBL document CHEMBL1128054, “The synthesis of pyrazolo[4,3-c]- and imidazo[4,5-c]-Aryl[e]fused pyridines as structural analogues of 4-aminonicotinoates” (Bioorg Med Chem Lett, 1995).

This assay addresses GABA-A receptor; anion channel. As to the kind of experiment: Inhibition of [35S][…] (TBPS) binding to Gamma-aminobutyric acid receptor. The assay is classed as protein-complex assay.

The structures appear in SMILES notation.

Turning to `COC(=O)c1c(C)nc2c(c1N)c1ccccc1n2C`, the IC50 came to 2000 nM.
As for `Cc1nc2sc3c(c2c(N)c1C(=O)OCC1CC1)CCC1(C3)OCCO1`, the IC50 was determined as 870 nM.
As to `CCOC(=O)c1c(C)nc2sc3c(c2c1N)CCC1(C3)OCCO1`, the IC50 worked out at 16400 nM.
Then `CCCOC(=O)c1c(C)nc2c(c1N)c1ccccc1n2C`, with 2000 nM; and `C#CCOC(=O)c1c(C)nc2sc3c(c2c1N)CCC1(C3)OCCO1`, with 780 nM.
The result for `Cc1nc2sc3c(c2c(N)c1C(=O)OCc1ccc(Cl)cc1)CCC1(C3)OCCO1` reads 310 nM.
Then `Cc1nc2sc3c(c2c2ncn(CC4CC4)c12)CCC1(C3)OCCO1`, with 8900 nM.
With `Cc1[nH]c2sc3c(c2c2ncnc1-2)CCC1(C3)OCCO1`, the IC50 is over 100000 nM.
The compound `C#CCCOC(=O)c1c(C)nc2sc3c(c2c1N)CCC1(C3)OCCO1` yielded an IC50 of 320 nM.
`Cc1nc2sc3c(c2c2nn(Cc4ccccc4)c(O)c12)CCC1(C3)OCCO1`: the IC50 was over 100000 nM.
In the case of `Cc1nc2sc3c(c2c2ncn(CCC4CC4)c12)CCC1(C3)OCCO1`, the 50% inhibitory concentration (IC50) worked out at 6300 nM.
In turn, `Cc1nc2sc3c(c2c(N)c1C(=O)OCc1ccccc1)CCC1(C3)OCCO1` gave an IC50 of 1400 nM.
Then `CCOC(=O)c1c(C)nc2c(c1N)c1ccccc1n2C`, with 2000 nM.
The compound `Cc1nc2sc3c(c2c(N)c1C(=O)OCCC1CC1)CCC1(C3)OCCO1` registered an IC50 of 240 nM.
For `Cc1nc2sc3c(c2c2ncn(CCc4ccc(Cl)cc4)c12)CCC1(C3)OCCO1`, the IC50 was 2700 nM.
